The results in this text go back to PubChem BioAssay AID1745844 (Carcinogenic Potency Database (CPDB), 2022).

The data set concerns rodent lifetime carcinogenesis bioassay, tumor incidence TD50. The data set is described as follows: carcinogenic potency in animals, long-term in vivo studies, CPDB compilation (AID 1745844).
Setting [1] is: rat, strain Fischer 344, females, by gavage, site: any site (literature study), lesion: several types, types named in the paper, dosed 103 weeks, study length 104 weeks.
The mark [2] stands for this setting: rat, strain Fischer 344, males, by gavage, site: any site (literature study), lesion: several types, types named in the paper, dosed 103 weeks, study length 104 weeks.

Activity calls are given as the source filed them. The rule behind the calls is not given here.

A word on the TD50: it is the 50% point of the dose-response relation for the toxic effect studied. As to `CCc1cccc2c3c([nH]c12)C(CC)(CC(=O)O)OCC3` (stereo unspecified), the carcinogen call is “negative (inactive)” (mouse, strain Charles River CD1, females, in feed, site: any site (literature study), lesion: benign tumor, dosed 78 weeks, study length 78 weeks); “negative (inactive)” (mouse, strain Charles River CD1, females, in feed, site: any site (literature study), lesion: several types, types named in the paper, dosed 78 weeks, study length 78 weeks); “negative (inactive)” (mouse, strain Charles River CD1, females, in feed, site: liver, lesion: hepatocellular adenoma, dosed 78 weeks, study length 78 weeks); “negative (inactive)” (mouse, strain Charles River CD1, females, in feed, site: lung, lesion: alveolar/bronchiolar carcinoma, dosed 78 weeks, study length 78 weeks); “negative (inactive)” (mouse, strain Charles River CD1, males, in feed, site: any site (literature study), lesion: benign tumor, dosed 78 weeks, study length 78 weeks); “negative (inactive)” (mouse, strain Charles River CD1, males, in feed, site: any site (literature study), lesion: malignant tumor, dosed 78 weeks, study length 78 weeks). For the same compound, the carcinogen call runs as follows: (mouse, strain Charles River CD1, males, in feed, site: any site (literature study), lesion: several types, types named in the paper, dosed 78 weeks, study length 78 weeks) “negative (inactive)”; (mouse, strain Charles River CD1, males, in feed, site: liver, lesion: hepatocellular adenoma, dosed 78 weeks, study length 78 weeks) “negative (inactive)”; (mouse, strain Charles River CD1, males, in feed, site: liver, lesion: hepatocellular carcinoma, dosed 78 weeks, study length 78 weeks) “negative (inactive)”; (rat, strain Charles River CD (Sprague-Dawley), females, in feed, site: any site (literature study), lesion: benign tumor, dosed 104 weeks, study length 104 weeks) “negative (inactive)”; (rat, strain Charles River CD (Sprague-Dawley), females, in feed, site: any site (literature study), lesion: malignant tumor, dosed 104 weeks, study length 104 weeks) “negative (inactive)”; (rat, strain Charles River CD (Sprague-Dawley), females, in feed, site: any site (literature study), lesion: several types, types named in the paper, dosed 104 weeks, study length 104 weeks) “negative (inactive)”. The carcinogen call by setting is: (rat, strain Charles River CD (Sprague-Dawley), females, in feed, site: liver, lesion: hepatocellular carcinoma, dosed 104 weeks, study length 104 weeks) “negative (inactive)”; (rat, strain Charles River CD (Sprague-Dawley), males, in feed, site: any site (literature study), lesion: benign tumor, dosed 104 weeks, study length 104 weeks) “negative (inactive)”; (rat, strain Charles River CD (Sprague-Dawley), males, in feed, site: any site (literature study), lesion: malignant tumor, dosed 104 weeks, study length 104 weeks) “negative (inactive)”; (rat, strain Charles River CD (Sprague-Dawley), males, in feed, site: any site (literature study), lesion: several types, types named in the paper, dosed 104 weeks, study length 104 weeks) “negative (inactive)”; (rat, strain Charles River CD (Sprague-Dawley), males, in feed, site: liver, lesion: hepatocellular carcinoma, dosed 104 weeks, study length 104 weeks) “negative (inactive)”. Besides, the TD50 is, setting by setting: (mouse, strain Charles River CD1, females, in feed, site: any site (literature study), lesion: malignant tumor, dosed 78 weeks, study length 78 weeks) 336 mg/kg/day (inactive); (rat, strain Charles River CD (Sprague-Dawley), females, in feed, site: liver, lesion: neoplastic nodule, dosed 104 weeks, study length 104 weeks) 1010 mg/kg/day (inactive); (rat, strain Charles River CD (Sprague-Dawley), males, in feed, site: liver, lesion: neoplastic nodule, dosed 104 weeks, study length 104 weeks) 1400 mg/kg/day (inactive).

For `[N-]=[N+]=[N-]`, the TD50 was 3.01 mg/kg/day (rat, strain Charles River CD (Sprague-Dawley), females, in feed, site: mammary gland, lesion: one or several types, types not named, dosed 78 weeks, study length 104 weeks); 16.1 mg/kg/day (inactive) (rat, strain Charles River CD (Sprague-Dawley), females, in feed, site: pituitary gland, lesion: chromophobe adenoma, dosed 78 weeks, study length 104 weeks); 19.1 mg/kg/day (inactive) under setting [1]; 8.26 mg/kg/day under setting [2]; 3.79 mg/kg/day (inactive) (rat, strain Fischer 344, males, by gavage, site: testis, lesion: interstitial-cell adenoma, bilateral + interstitial-cell adenoma, dosed 103 weeks, study length 104 weeks). Also, where the note is “rat, strain Charles River CD (Sprague-Dawley), males, in feed, site: pituitary gland, lesion: chromophobe adenoma, dosed 78 weeks, study length 104 weeks”, the carcinogen call was “negative (inactive)”.

Consider `CC(C)C[C@H]1C(=O)N2CCC[C@H]2[C@]2(O)O[C@](NC(=O)[C@@H]3C=C4c5cccc6[nH]c(Br)c(c56)C[C@H]4N(C)C3)(C(C)C)C(=O)N12`, for which the TD50 was 175 mg/kg/day (inactive) (mouse, strain OF1, females, in feed, site: any site (literature study), lesion: several types, types named in the paper, dosed 74 weeks, study length 74 weeks); 68 mg/kg/day (inactive) (mouse, strain OF1, males, in feed, site: any site (literature study), lesion: several types, types named in the paper, dosed 74 weeks, study length 74 weeks); 308 mg/kg/day (inactive) (mouse, strain OF1, males, in feed, site: liver, lesion: neoplastic nodule, dosed 74 weeks, study length 74 weeks); 618 mg/kg/day (inactive) (mouse, strain OF1, males, in feed, site: lung, lesion: adenoma, dosed 74 weeks, study length 74 weeks); 117 mg/kg/day (rat, strain OFA (Sprague-Dawley derived), females, in feed, site: uterus, lesion: malignant tumor, dosed 100 weeks, study length 100 weeks); 33.7 mg/kg/day (rat, strain OFA (Sprague-Dawley derived), females, in feed, site: uterus, lesion: several types, types named in the paper, dosed 100 weeks, study length 100 weeks). In addition, the carcinogen call is, setting by setting: (mouse, strain OF1, females, in feed, site: liver, lesion: neoplastic nodule, dosed 74 weeks, study length 74 weeks) “negative (inactive)”; (mouse, strain OF1, females, in feed, site: lung, lesion: adenoma, dosed 74 weeks, study length 74 weeks) “negative (inactive)”.

With `CCCN=[N+]([O-])CCC`, the TD50 is 0.00736 mg/kg/day (rat, strain Sprague-Dawley, males, by gavage, site: liver, lesion: hepatocellular carcinoma, dosed 26 weeks, study length 77 weeks); 0.000723 mg/kg/day (rat, strain Sprague-Dawley, males, by gavage, site: nasal cavity, lesion: esthesioneuroepithelioma, dosed 26 weeks, study length 77 weeks); 0.00736 mg/kg/day (rat, strain Sprague-Dawley, males, by gavage, site: nasal cavity, lesion: papilloma, dosed 26 weeks, study length 77 weeks); 0.000596 mg/kg/day (rat, strain Sprague-Dawley, males, by gavage, site: nasal cavity, lesion: several types, types named in the paper, dosed 26 weeks, study length 77 weeks); 0.00038 mg/kg/day (rat, strain Sprague-Dawley, males, by gavage, site: skin, lesion: keratoacanthoma, dosed 26 weeks, study length 77 weeks). Also, for the setting “rat, strain Sprague-Dawley, males, by gavage, site: skin, lesion: several types, types named in the paper, dosed 26 weeks, study length 77 weeks”, the carcinogen call was “positive”.

For `Oc1ccc(O)cc1`, the TD50 was 122 mg/kg/day (mouse, strain B6C3F1, females, by gavage, site: liver, lesion: hepatocellular adenoma + hepatocellular carcinoma + neoplastic nodule, dosed 103 weeks, study length 105 weeks); 122 mg/kg/day (mouse, strain B6C3F1, females, by gavage, site: liver, lesion: hepatocellular adenoma + hepatocellular carcinoma, dosed 103 weeks, study length 105 weeks); 65 mg/kg/day (mouse, strain B6C3F1, females, by gavage, site: liver, lesion: hepatocellular adenoma, dosed 103 weeks, study length 105 weeks); 19200 mg/kg/day (mouse, strain B6C3F1, females, by gavage, site: lung, lesion: alveolar/bronchiolar adenoma + alveolar/bronchiolar carcinoma, dosed 103 weeks, study length 105 weeks); 17900 mg/kg/day (mouse, strain B6C3F1, females, in feed, site: liver, lesion: hepatocellular adenoma, dosed 96 weeks, study length 96 weeks); 497 mg/kg/day (inactive) (mouse, strain B6C3F1, males, by gavage, site: any site (literature study), lesion: several types, types named in the paper, dosed 103 weeks, study length 104 weeks). For the same compound, the TD50 is 383 mg/kg/day (mouse, strain B6C3F1, males, by gavage, site: liver, lesion: hepatocellular adenoma + hepatocellular carcinoma + neoplastic nodule, dosed 103 weeks, study length 104 weeks); 5320 mg/kg/day (mouse, strain B6C3F1, males, in feed, site: kidney, lesion: adenoma, dosed 96 weeks, study length 96 weeks); 1450 mg/kg/day (mouse, strain B6C3F1, males, in feed, site: liver, lesion: hepatocellular adenoma, dosed 96 weeks, study length 96 weeks); 8080 mg/kg/day (rat, strain F344/DuCrj, females, in feed, site: liver, lesion: hepatocellular carcinoma, dosed 104 weeks, study length 104 weeks); 349 mg/kg/day (rat, strain F344/DuCrj, males, in feed, site: kidney, lesion: adenoma, dosed 104 weeks, study length 104 weeks); 55.8 mg/kg/day (rat, strain Fischer 344, females, by gavage, site: all sites, lesion: mononuclear-cell leukemia, dosed 103 weeks, study length 104 weeks). Further, the TD50 is, setting by setting: under setting [1], 51.6 mg/kg/day; (rat, strain Fischer 344, males, by gavage, site: adrenal medulla, lesion: pheochromocytoma benign, bilateral + pheochromocytoma, benign, dosed 103 weeks, study length 104 weeks) 48.2 mg/kg/day; (rat, strain Fischer 344, males, by gavage, site: adrenal medulla, lesion: pheochromocytoma benign, bilateral + pheochromocytoma, malignant + pheochromocytoma, benign, dosed 103 weeks, study length 104 weeks) 40.4 mg/kg/day; under setting [2], 41.8 mg/kg/day; (rat, strain Fischer 344, males, by gavage, site: kidney, lesion: tubule adenoma, dosed 103 weeks, study length 104 weeks) 64.7 mg/kg/day; (rat, strain Fischer 344, males, by gavage, site: liver, lesion: hepatocellular adenoma + hepatocellular carcinoma + neoplastic nodule, dosed 103 weeks, study length 104 weeks) 5710 mg/kg/day.

Regarding `O=NN1CN2CN(C1)CN(N=O)C2`, the carcinogen call (rat, strain CB, males, i.p., site: liver, lesion: hepatoma, dosed 26 weeks, study length 100 weeks) is “negative (inactive)”.

Consider `Nc1ccc(O)c([N+](=O)[O-])c1`, for which the carcinogen call by setting is: (mouse, strain B6C3F1, females, in feed, site: any site (literature study), lesion: several types, types named in the paper, dosed 103 weeks, study length 105 weeks) “negative (inactive)”; (mouse, strain B6C3F1, males, in feed, site: any site (literature study), lesion: several types, types named in the paper, dosed 103 weeks, study length 105 weeks) “negative (inactive)”. The TD50 is 3650 mg/kg/day (mouse, strain B6C3F1, females, in feed, site: liver, lesion: hepatocellular adenoma + hepatocellular carcinoma + neoplastic nodule, dosed 103 weeks, study length 105 weeks); 2250 mg/kg/day (mouse, strain B6C3F1, males, in feed, site: liver, lesion: hepatocellular adenoma + hepatocellular carcinoma + neoplastic nodule, dosed 103 weeks, study length 105 weeks); 1880 mg/kg/day (rat, strain Fischer 344, females, in feed, site: urinary bladder, lesion: transitional-cell carcinoma, dosed 103 weeks, study length 105 weeks); 270 mg/kg/day (rat, strain Fischer 344, males, in feed, site: any site (literature study), lesion: several types, types named in the paper, dosed 103 weeks, study length 105 weeks); 309 mg/kg/day (rat, strain Fischer 344, males, in feed, site: urinary bladder, lesion: transitional-cell carcinoma, dosed 103 weeks, study length 105 weeks).
